{
  "source": "EPA's ToxValDB 9.5",
  "key": {"[1]": {"system": "Rattus norvegicus", "conditions": "subchronic; oral; diet; M; Fischer 344; Body Weight Changes: decrease + Blood Chemistry: Alp increase, Bile acid increase, ALT increase, SDH increase + Absolute Organ Weight: Liver…"}, "[2]": {"system": "Rattus norvegicus", "conditions": "short-term, duration: 28 days, oral, gavage, Sprague-Dawley"}},
  "note": "Where “and” joins values, the source holds several entries; their conditions need not be identical. Equal entries are not always repeated.",
  "data": [
    {"compound": "Cc1cccc(Nc2cc(Cl)nc(SCC(=O)O)n2)c1C", "note": "[[4-Chloro-6-(2,3-xylidino)-2-pyrimidinylthio]acetic acid]", "values": [
      {"measurement": "NOEL", "setting": "[1]", "result": "< 0.48", "unit": "mg/kg-day"},
      {"measurement": "LOEL", "setting": "[2]; F, Clinical chemistry_Alanine aminotransferase", "result": 25, "unit": "mg/kg-day"},
      {"measurement": "LOEL", "setting": "[2]; F, Clinical chemistry_Albumin", "result": 6.25, "unit": "mg/kg-day"},
      {"measurement": "LOEL", "setting": "[2]; F, Clinical chemistry_Albumin/globulin ratio", "result": 6.25, "unit": "mg/kg-day"},
      {"measurement": "LOEL", "setting": "[2]; F, Clinical chemistry_Alkaline phosphatase", "result": 6.25, "unit": "mg/kg-day"},
      {"measurement": "LOEL", "setting": "[2]; F, Clinical chemistry_Aspartate aminotransferase", "result": 25, "unit": "mg/kg-day"},
      {"measurement": "NOEL", "setting": "[2]; F, Clinical chemistry_Cholesterol", "result": 25, "unit": "mg/kg-day"},
      {"measurement": "NOEL", "setting": "[2]; F, Clinical chemistry_Creatinine kinase", "result": 25, "unit": "mg/kg-day"},
      {"measurement": "NOEL", "setting": "[2]; F, Clinical chemistry_Direct bilirubin", "result": 25, "unit": "mg/kg-day"},
      {"measurement": "NOEL", "setting": "[2]; F, Clinical chemistry_Free thyroxine", "result": 25, "unit": "mg/kg-day"},
      {"measurement": "LOEL", "setting": "[2]; F, Clinical chemistry_Globulin", "result": 6.25, "unit": "mg/kg-day"},
      {"measurement": "NOEL", "setting": "[2]; F, Clinical chemistry_Indirect bilirubin", "result": 25, "unit": "mg/kg-day"},
      {"measurement": "LOEL", "setting": "[2]; F, Clinical chemistry_Sorbitol dehydrogenase", "result": 6.25, "unit": "mg/kg-day"},
      {"measurement": "NOEL", "setting": "[2]; F, Clinical chemistry_T bilirubin", "result": 25, "unit": "mg/kg-day"},
      {"measurement": "LOEL", "setting": "[2]; F, Clinical chemistry_Testosterone", "result": 6.25, "unit": "mg/kg-day"},
      {"measurement": "LOEL", "setting": "[2]; F, Clinical chemistry_Thyroid stimulating hormone", "result": 6.25, "unit": "mg/kg-day"},
      {"measurement": "NOEL", "setting": "[2]; F, Clinical chemistry_Total bile acids", "result": 25, "unit": "mg/kg-day"},
      {"measurement": "NOEL", "setting": "[2]; F, Clinical chemistry_Total bilirubin", "result": 25, "unit": "mg/kg-day"},
      {"measurement": "LOEL", "setting": "[2]; F, Clinical chemistry_Total protein", "result": 12.5, "unit": "mg/kg-day"},
      {"measurement": "NOEL", "setting": "[2]; F, Clinical chemistry_Total thyroxine", "result": 25, "unit": "mg/kg-day"},
      {"measurement": "LOEL", "setting": "[2]; F, Clinical chemistry_Total triiodothyronine", "result": "12.5 mg/kg-day and 6.25 mg/kg-day"},
      {"measurement": "NOEL", "setting": "[2]; F, Clinical chemistry_Triglycerides", "result": 25, "unit": "mg/kg-day"},
      {"measurement": "LOEL", "setting": "[2]; F, Gene expression_Acox1", "result": 6.25, "unit": "mg/kg-day"},
      {"measurement": "LOEL", "setting": "[2]; F, Gene expression_Cyp2b1", "result": 6.25, "unit": "mg/kg-day"},
      {"measurement": "LOEL", "setting": "[2]; F, Gene expression_Cyp2b2", "result": 6.25, "unit": "mg/kg-day"},
      {"measurement": "LOEL", "setting": "[2]; F, Gene expression_Cyp4a1", "result": 6.25, "unit": "mg/kg-day"},
      {"measurement": "NOEL", "setting": "[2]; F, Hematology_Erythrocytes", "result": 25, "unit": "mg/kg-day"},
      {"measurement": "NOEL", "setting": "[2]; F, Hematology_Hematocrit", "result": 25, "unit": "mg/kg-day"},
      {"measurement": "NOEL", "setting": "[2]; F, Hematology_Hemoglobin", "result": 25, "unit": "mg/kg-day"},
      {"measurement": "NOEL", "setting": "[2]; F, Hematology_Leukocytes", "result": 25, "unit": "mg/kg-day"},
      {"measurement": "NOEL", "setting": "[2]; F, Hematology_Mean corpuscular hemoglobin concentration", "result": 25, "unit": "mg/kg-day"},
      {"measurement": "NOEL", "setting": "[2]; F, Hematology_Mean corpuscular volume", "result": 25, "unit": "mg/kg-day"},
      {"measurement": "NOEL", "setting": "[2]; F, Hematology_Platelets", "result": 25, "unit": "mg/kg-day"},
      {"measurement": "NOEL", "setting": "[2]; F, Hematology_Reticulocytes", "result": 25, "unit": "mg/kg-day"},
      {"measurement": "NOEL", "setting": "[2]; F, Hematology_S. neutrophils", "result": 25, "unit": "mg/kg-day"},
      {"measurement": "NOEL", "setting": "[2]; F, Nonneoplastic effects_Bone marrow - Hypocellularity", "result": 25, "unit": "mg/kg-day"},
      {"measurement": "NOEL", "setting": "[2]; F, Nonneoplastic effects_Kidney - Papilla, necrosis", "result": 25, "unit": "mg/kg-day"},
      {"measurement": "NOEL", "setting": "[2]; F, Nonneoplastic effects_Liver - Hepatocyte, Necrosis", "result": 25, "unit": "mg/kg-day"},
      {"measurement": "LOEL", "setting": "[2]; F, Nonneoplastic effects_Liver - Hepatocyte, cytoplasmic alteration", "result": 6.25, "unit": "mg/kg-day"},
      {"measurement": "LOEL", "setting": "[2]; F, Nonneoplastic effects_Liver - Hepatocyte, hypertrophy", "result": 25, "unit": "mg/kg-day"},
      {"measurement": "NOEL", "setting": "[2]; F, Nonneoplastic effects_Liver - Hepatocyte, vacuolization cytoplasmic", "result": 25, "unit": "mg/kg-day"},
      {"measurement": "NOEL", "setting": "[2]; F, Nonneoplastic effects_Liver - Necrosis", "result": 25, "unit": "mg/kg-day"},
      {"measurement": "NOEL", "setting": "[2]; F, Nonneoplastic effects_Nose - Olfactory epithelium, degeneration", "result": 25, "unit": "mg/kg-day"},
      {"measurement": "NOEL", "setting": "[2]; F, Nonneoplastic effects_Nose - Olfactory epithelium, hyperplasia", "result": 25, "unit": "mg/kg-day"},
      {"measurement": "NOEL", "setting": "[2]; F, Nonneoplastic effects_Nose - Olfactory epithelium, inflammation, suppurative", "result": 25, "unit": "mg/kg-day"},
      {"measurement": "NOEL", "setting": "[2]; F, Nonneoplastic effects_Nose - Olfactory epithelium, necrosis", "result": 25, "unit": "mg/kg-day"},
      {"measurement": "NOEL", "setting": "[2]; F, Nonneoplastic effects_Spleen - Extramedullary hematopoiesis, decreased", "result": 25, "unit": "mg/kg-day"},
      {"measurement": "NOEL", "setting": "[2]; F, Nonneoplastic effects_Stomach, forestomach - Epithelium, hyperplasia", "result": 25, "unit": "mg/kg-day"},
      {"measurement": "NOEL", "setting": "[2]; F, Nonneoplastic effects_Thymus - Atrophy", "result": 25, "unit": "mg/kg-day"},
      {"measurement": "NOEL", "setting": "[2]; F, Organ weights_Heart - Absolute", "result": 25, "unit": "mg/kg-day"},
      {"measurement": "NOEL", "setting": "[2]; F, Organ weights_Heart - Relative", "result": 25, "unit": "mg/kg-day"},
      {"measurement": "LOEL", "setting": "[2]; F, Organ weights_Liver - Absolute", "result": 6.25, "unit": "mg/kg-day"},
      {"measurement": "LOEL", "setting": "[2]; F, Organ weights_Liver - Relative", "result": 6.25, "unit": "mg/kg-day"},
      {"measurement": "NOEL", "setting": "[2]; F, Organ weights_Lung - Absolute", "result": 25, "unit": "mg/kg-day"},
      {"measurement": "NOEL", "setting": "[2]; F, Organ weights_Lung - Relative", "result": 25, "unit": "mg/kg-day"},
      {"measurement": "NOEL", "setting": "[2]; F, Organ weights_R. adrenal gland - Absolute", "result": 25, "unit": "mg/kg-day"},
      {"measurement": "NOEL", "setting": "[2]; F, Organ weights_R. adrenal gland - Relative", "result": 25, "unit": "mg/kg-day"},
      {"measurement": "LOEL", "setting": "[2]; F, Organ weights_R. kidney - Absolute", "result": 6.25, "unit": "mg/kg-day"},
      {"measurement": "LOEL", "setting": "[2]; F, Organ weights_R. kidney - Relative", "result": 6.25, "unit": "mg/kg-day"},
      {"measurement": "NOEL", "setting": "[2]; F, Organ weights_Spleen - Absolute", "result": 25, "unit": "mg/kg-day"},
      {"measurement": "NOEL", "setting": "[2]; F, Organ weights_Spleen - Relative", "result": 25, "unit": "mg/kg-day"},
      {"measurement": "NOEL", "setting": "[2]; F, Organ weights_Thymus - Absolute", "result": 25, "unit": "mg/kg-day"},
      {"measurement": "NOEL", "setting": "[2]; F, Organ weights_Thymus - Relative", "result": 25, "unit": "mg/kg-day"},
      {"measurement": "NOEL", "setting": "[2]; F, Organ weights_Thyroid gland - Absolute", "result": 25, "unit": "mg/kg-day"},
      {"measurement": "NOEL", "setting": "[2]; F, Organ weights_Thyroid gland - Relative", "result": 25, "unit": "mg/kg-day"},
      {"measurement": "LOEL", "setting": "[2]; F, Reproductive toxicity_Altered estrous cyclicity", "result": 6.25, "unit": "mg/kg-day"},
      {"measurement": "NOEL", "setting": "[2]; F, Survival rates", "result": 25, "unit": "mg/kg-day"},
      {"measurement": "NOEL", "setting": "[2]; F, body weight", "result": 25, "unit": "mg/kg-day"},
      {"measurement": "LOEL", "setting": "[2]; M, Clinical chemistry_Alanine aminotransferase", "result": 6.25, "unit": "mg/kg-day"},
      {"measurement": "LOEL", "setting": "[2]; M, Clinical chemistry_Albumin", "result": 6.25, "unit": "mg/kg-day"},
      {"measurement": "LOEL", "setting": "[2]; M, Clinical chemistry_Albumin/globulin ratio", "result": 6.25, "unit": "mg/kg-day"},
      {"measurement": "LOEL", "setting": "[2]; M, Clinical chemistry_Alkaline phosphatase", "result": 6.25, "unit": "mg/kg-day"},
      {"measurement": "LOEL", "setting": "[2]; M, Clinical chemistry_Aspartate aminotransferase", "result": 25, "unit": "mg/kg-day"},
      {"measurement": "LOEL", "setting": "[2]; M, Clinical chemistry_Cholesterol", "result": 6.25, "unit": "mg/kg-day"},
      {"measurement": "NOEL", "setting": "[2]; M, Clinical chemistry_Creatinine kinase", "result": 25, "unit": "mg/kg-day"},
      {"measurement": "LOEL", "setting": "[2]; M, Clinical chemistry_Direct bilirubin", "result": 25, "unit": "mg/kg-day"}
    ]}
  ]
}
